Source: the NIST ThermoML archive (doi:10.1021/je300388b)
± gives the expanded uncertainty stated by the source.

Assay: xn = mol fraction of the nth substance listed
Conditions: Liquid

CCCCCCCCCC [decane] + O=C=O
Conditions | mass density [kg/m3]
303.04 K, 8020 kPa, x2 = 0.869 | 798.45 ± 0.56
303.15 K, 9990 kPa, x2 = 0.4698 | 756.27 ± 0.54
303.15 K, 11990 kPa, x2 = 0.4698 | 758.43 ± 0.55
303.15 K, 14000 kPa, x2 = 0.4698 | 760.53 ± 0.55
303.15 K, 15980 kPa, x2 = 0.4698 | 762.54 ± 0.55
303.15 K, 17990 kPa, x2 = 0.4698 | 764.51 ± 0.55
303.15 K, 19010 kPa, x2 = 0.2361 | 748.64 ± 0.54
303.15 K, 19010 kPa, x2 = 0.4698 | 765.49 ± 0.55
303.16 K, 7980 kPa, x2 = 0.2361 | 740.1 ± 0.54
303.16 K, 8020 kPa, x2 = 0.4698 | 754.05 ± 0.54
303.16 K, 9970 kPa, x2 = 0.2361 | 741.73 ± 0.54
303.16 K, 12020 kPa, x2 = 0.2361 | 743.35 ± 0.54
303.16 K, 16020 kPa, x2 = 0.2361 | 746.43 ± 0.54
303.17 K, 14020 kPa, x2 = 0.2361 | 744.91 ± 0.54
303.17 K, 18020 kPa, x2 = 0.2361 | 747.92 ± 0.54
303.31 K, 10030 kPa, x2 = 0.869 | 807.43 ± 0.56
303.31 K, 14030 kPa, x2 = 0.869 | 824.12 ± 0.56
303.31 K, 18050 kPa, x2 = 0.869 | 837.96 ± 0.57
303.36 K, 12020 kPa, x2 = 0.869 | 816.02 ± 0.56
303.37 K, 16020 kPa, x2 = 0.869 | 831.09 ± 0.56
313 K, 7980 kPa, x2 = 0.71 | 763.24 ± 0.54
313 K, 9940 kPa, x2 = 0.71 | 767.44 ± 0.54
313 K, 13970 kPa, x2 = 0.71 | 775.3 ± 0.55
313.01 K, 11690 kPa, x2 = 0.71 | 770.91 ± 0.55
313.01 K, 18020 kPa, x2 = 0.71 | 782.43 ± 0.55
313.03 K, 16020 kPa, x2 = 0.71 | 778.96 ± 0.55
313.06 K, 13970 kPa, x2 = 0.4698 | 750.5 ± 0.54
313.07 K, 15990 kPa, x2 = 0.4698 | 752.76 ± 0.54
313.09 K, 17990 kPa, x2 = 0.4698 | 754.91 ± 0.54
313.09 K, 19000 kPa, x2 = 0.4698 | 755.97 ± 0.54
313.1 K, 8010 kPa, x2 = 0.4698 | 743.23 ± 0.54
313.11 K, 11990 kPa, x2 = 0.4698 | 748.15 ± 0.54
313.12 K, 10010 kPa, x2 = 0.4698 | 745.74 ± 0.54
313.13 K, 16010 kPa, x2 = 0.2361 | 738.82 ± 0.54
313.13 K, 18010 kPa, x2 = 0.2361 | 740.41 ± 0.54
313.14 K, 10010 kPa, x2 = 0.2361 | 733.81 ± 0.54
313.14 K, 19020 kPa, x2 = 0.2361 | 741.18 ± 0.54
313.15 K, 7990 kPa, x2 = 0.2361 | 732.05 ± 0.54
313.15 K, 14010 kPa, x2 = 0.2361 | 737.19 ± 0.54
313.16 K, 12000 kPa, x2 = 0.2361 | 735.5 ± 0.54
313.23 K, 18020 kPa, x2 = 0.869 | 812.48 ± 0.56
313.27 K, 10000 kPa, x2 = 0.869 | 776.26 ± 0.55
313.31 K, 14000 kPa, x2 = 0.869 | 796.68 ± 0.56
313.33 K, 12000 kPa, x2 = 0.869 | 787.12 ± 0.55
313.36 K, 7990 kPa, x2 = 0.869 | 762.46 ± 0.55
313.37 K, 16040 kPa, x2 = 0.869 | 804.9 ± 0.56
323.02 K, 8000 kPa, x2 = 0.71 | 747.45 ± 0.54
323.02 K, 18230 kPa, x2 = 0.71 | 769.63 ± 0.55
323.09 K, 14030 kPa, x2 = 0.71 | 761.43 ± 0.54
323.11 K, 16040 kPa, x2 = 0.71 | 765.46 ± 0.54
323.12 K, 9940 kPa, x2 = 0.71 | 752.26 ± 0.54
323.13 K, 18030 kPa, x2 = 0.2361 | 732.88 ± 0.54
323.15 K, 8010 kPa, x2 = 0.4698 | 732.04 ± 0.54
323.15 K, 9980 kPa, x2 = 0.4698 | 734.86 ± 0.54
323.15 K, 11970 kPa, x2 = 0.71 | 756.86 ± 0.54
323.15 K, 12030 kPa, x2 = 0.2361 | 727.66 ± 0.54
323.15 K, 16020 kPa, x2 = 0.2361 | 731.17 ± 0.54
323.15 K, 18000 kPa, x2 = 0.4698 | 745.11 ± 0.54
323.15 K, 19000 kPa, x2 = 0.4698 | 746.27 ± 0.54
323.15 K, 19020 kPa, x2 = 0.2361 | 733.69 ± 0.54
323.16 K, 14030 kPa, x2 = 0.2361 | 729.45 ± 0.54
323.17 K, 12020 kPa, x2 = 0.4698 | 737.61 ± 0.54
323.17 K, 15980 kPa, x2 = 0.4698 | 742.66 ± 0.54
323.18 K, 8030 kPa, x2 = 0.2361 | 723.85 ± 0.54
323.18 K, 9970 kPa, x2 = 0.2361 | 725.74 ± 0.54
323.19 K, 13990 kPa, x2 = 0.4698 | 740.16 ± 0.54
323.29 K, 16020 kPa, x2 = 0.869 | 778.27 ± 0.55
323.3 K, 10010 kPa, x2 = 0.869 | 740.74 ± 0.55
323.3 K, 18080 kPa, x2 = 0.869 | 787.62 ± 0.55
323.34 K, 11990 kPa, x2 = 0.869 | 755.53 ± 0.55
323.38 K, 14000 kPa, x2 = 0.869 | 767.56 ± 0.55
333.09 K, 10020 kPa, x2 = 0.71 | 736.44 ± 0.54
333.1 K, 11960 kPa, x2 = 0.71 | 741.69 ± 0.54
333.12 K, 8090 kPa, x2 = 0.71 | 730.25 ± 0.54
333.12 K, 17970 kPa, x2 = 0.4698 | 735.23 ± 0.54
333.12 K, 18050 kPa, x2 = 0.71 | 756.13 ± 0.54
333.13 K, 8020 kPa, x2 = 0.2361 | 715.58 ± 0.53
333.13 K, 11990 kPa, x2 = 0.4698 | 726.89 ± 0.54
333.13 K, 14000 kPa, x2 = 0.4698 | 729.82 ± 0.54
333.13 K, 14030 kPa, x2 = 0.2361 | 721.58 ± 0.54
333.13 K, 14050 kPa, x2 = 0.71 | 746.85 ± 0.54
333.13 K, 15960 kPa, x2 = 0.4698 | 732.55 ± 0.54
333.13 K, 16020 kPa, x2 = 0.2361 | 723.45 ± 0.54
333.13 K, 19020 kPa, x2 = 0.2361 | 726.15 ± 0.54
333.14 K, 9930 kPa, x2 = 0.4698 | 723.71 ± 0.54
333.15 K, 10020 kPa, x2 = 0.2361 | 717.65 ± 0.53
333.15 K, 12030 kPa, x2 = 0.2361 | 719.64 ± 0.54
333.15 K, 16040 kPa, x2 = 0.71 | 751.6 ± 0.54
333.15 K, 18020 kPa, x2 = 0.2361 | 725.24 ± 0.54
333.19 K, 7980 kPa, x2 = 0.4698 | 720.48 ± 0.54
333.19 K, 15930 kPa, x2 = 0.869 | 754.21 ± 0.54
333.2 K, 18080 kPa, x2 = 0.869 | 762.91 ± 0.54
333.22 K, 14070 kPa, x2 = 0.869 | 745.06 ± 0.54
343.02 K, 10240 kPa, x2 = 0.71 | 720.54 ± 0.54
343.02 K, 12280 kPa, x2 = 0.71 | 726.49 ± 0.54
343.1 K, 12070 kPa, x2 = 0.4698 | 716.06 ± 0.53
343.11 K, 16090 kPa, x2 = 0.4698 | 722.46 ± 0.54
343.11 K, 19120 kPa, x2 = 0.4698 | 726.87 ± 0.54
343.12 K, 14000 kPa, x2 = 0.71 | 730.99 ± 0.54
343.13 K, 8070 kPa, x2 = 0.4698 | 708.84 ± 0.53
343.13 K, 16030 kPa, x2 = 0.71 | 736.12 ± 0.54
343.13 K, 18000 kPa, x2 = 0.71 | 741.08 ± 0.54
343.14 K, 18000 kPa, x2 = 0.4698 | 725.25 ± 0.54
343.16 K, 18050 kPa, x2 = 0.869 | 743.75 ± 0.54
343.18 K, 9930 kPa, x2 = 0.4698 | 712.24 ± 0.53
343.19 K, 13920 kPa, x2 = 0.4698 | 719 ± 0.54
343.21 K, 12010 kPa, x2 = 0.2361 | 711.78 ± 0.53
343.23 K, 16060 kPa, x2 = 0.869 | 735.77 ± 0.54
343.23 K, 18020 kPa, x2 = 0.2361 | 718.14 ± 0.53
343.24 K, 14010 kPa, x2 = 0.2361 | 713.97 ± 0.53
343.24 K, 16010 kPa, x2 = 0.2361 | 716.11 ± 0.53
343.25 K, 8010 kPa, x2 = 0.2361 | 707.17 ± 0.53
343.25 K, 10010 kPa, x2 = 0.2361 | 709.51 ± 0.53
343.26 K, 19020 kPa, x2 = 0.2361 | 719.17 ± 0.54
352.97 K, 9880 kPa, x2 = 0.71 | 706.61 ± 0.53
352.99 K, 18040 kPa, x2 = 0.869 | 719.9 ± 0.54
353.01 K, 11990 kPa, x2 = 0.71 | 711.36 ± 0.53
353.06 K, 16040 kPa, x2 = 0.4698 | 711.93 ± 0.53
353.06 K, 19020 kPa, x2 = 0.2361 | 711.31 ± 0.53
353.09 K, 14010 kPa, x2 = 0.4698 | 708.37 ± 0.53
353.09 K, 18080 kPa, x2 = 0.4698 | 715.25 ± 0.53
353.1 K, 12020 kPa, x2 = 0.2361 | 703.37 ± 0.53
353.11 K, 10030 kPa, x2 = 0.2361 | 700.96 ± 0.53
353.11 K, 14010 kPa, x2 = 0.2361 | 705.7 ± 0.53
353.12 K, 10090 kPa, x2 = 0.4698 | 700.82 ± 0.53
353.12 K, 17940 kPa, x2 = 0.71 | 725.1 ± 0.54
353.12 K, 18020 kPa, x2 = 0.2361 | 710.21 ± 0.53
353.12 K, 19060 kPa, x2 = 0.4698 | 716.77 ± 0.53
353.13 K, 8010 kPa, x2 = 0.2361 | 698.4 ± 0.53
353.13 K, 8040 kPa, x2 = 0.4698 | 696.42 ± 0.53
353.13 K, 12050 kPa, x2 = 0.4698 | 704.69 ± 0.53
353.13 K, 16020 kPa, x2 = 0.2361 | 707.98 ± 0.53
353.14 K, 15980 kPa, x2 = 0.71 | 719.92 ± 0.54
353.26 K, 14130 kPa, x2 = 0.71 | 715.78 ± 0.54
362.92 K, 12050 kPa, x2 = 0.71 | 698.95 ± 0.53
362.99 K, 18090 kPa, x2 = 0.71 | 712.19 ± 0.54
363.08 K, 16050 kPa, x2 = 0.71 | 707.18 ± 0.53
363.28 K, 14100 kPa, x2 = 0.71 | 702.89 ± 0.53
